Measured values reported in patent US20260250318A1, “COMPOSITIONS AND METHODS FOR CROSSING THE BLOOD BRAIN BARRIER” (VOYAGER THERAPEUTICS, INC., priority 2022, published 2026).

Tests used:
[1] = test system: brain; test: Matured TTM-001 and TTM-002 variants, NGS enrichment in mouse brain; type: in vivo, mice; details: relative to AAV9 control
[2] = test system: brains, heart, liver, muscle, and DRG of the NHPs; test: Maturation of TTM-001 and TTM-002 capsids, NGS enrichment in NHP tissues; type: in vivo; details: relative to AAV9 control
Method in brief: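 Variants carry mutations within and flanking the loop IV peptide insert: positions 450–466 were triplet-randomized, while positions 449–466 received low-frequency point mutations. The combined pool went into two NHPs, and each peptide was scored by NGS enrichment ratio against AAV9.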

[3] = NGS fold-enrichment of matured AAV capsid variants, NHP brain, RNA
[4] = NGS fold-enrichment, brain of mice
[5] = NGS fold-enrichment, DRG of NHPs
[6] = NGS fold-enrichment, RNA, brain of NHPs
[7] = NGS fold-enrichment, heart of NHPs
[8] = NGS fold-enrichment, liver DNA of NHPs
[9] = NGS fold-enrichment, liver RNA of NHPs
[10] = NGS fold-enrichment, muscle of NHPs

Sequence	Fold Enrichment relative to AAV9, Brain (Mouse) ([1]; mouse brain) [fold]	Fold Enrichment relative to AAV9, Brain (NHP) [2, 3] [fold]	Fold Enrichment relative to AAV9, DRG (NHP) ([2]; NHP DRG) [fold]	Fold Enrichment relative to AAV9, Heart (NHP) ([2]; NHP heart) [fold]	Fold Enrichment relative to AAV9, Liver DNA (NHP) ([2]; NHP liver, DNA) [fold]	Fold Enrichment relative to AAV9, Liver RNA (NHP) ([2]; NHP liver, RNA) [fold]	Fold Enrichment relative to AAV9, Muscle (NHP) ([2]; NHP muscle) [fold]	other results
KTINGSGSPHSKAQKTLT	66.415	56.844	0.000	0.017	1.400	1.800	0.009	
KTINGSGSPHSKAQKVIT	95.147	53.273	0.000	0.000	0.402	0.357	0.000	
KTINGSGSPHSKAQLHHT	58.418	56.815	0.025	0.000	0.368	0.712	0.010	
KTINGSGSPHSKAQLPST	84.918	56.238	0.005	4.258	0.185	1.040	0.001	
KTINGSGSPHSKAQMPNT	66.040	52.408	0.084	0.036	0.359	0.057	0.025	
KTINGSGSPHSKAQMPST	114.331	54.986	1.691	0.039	0.202	0.450	0.028	
KTINGSGSPHSKAQNIII	76.742	56.630	0.000	0.062	0.056	0.099	0.123	
KTINGSGSPHSKAQNNDQ	59.664	53.226	0.000	0.000	0.046	0.593	0.000	
KTINGSGSPHSKAQNTHD	81.189	58.108	0.000	0.027	0.126	0.410	0.000	
KTINGSGSPHSKAQNTYA								Fold Enrichment relative to AAV9, Brain (Mouse) [1, 4]: 101.715 fold; Fold Enrichment relative to AAV9, DRG (NHP) [2, 5]: 0.000 fold; Fold Enrichment relative to AAV9, Brain (NHP) [2, 6]: 59.603 fold; Fold Enrichment relative to AAV9, Heart (NHP) [2, 7]: 0.000 fold; Fold Enrichment relative to AAV9, Liver DNA (NHP) [2, 8]: 0.346 fold; Fold Enrichment relative to AAV9, Liver RNA (NHP) [2, 9]: 0.425 fold; Fold Enrichment relative to AAV9, Muscle (NHP) [2, 10]: 0.000 fold
KTINGSGSPHSKAQPAKT								Fold Enrichment relative to AAV9, Brain (Mouse) [1, 4]: 215.275 fold; Fold Enrichment relative to AAV9, Brain (Mouse) ([1]; NGS fold-enrichment, mouse brain): 215.275 fold; Fold Enrichment relative to AAV9, Brain (NHP) ([2]; NGS fold-enrichment of RNA, NHP brain): 111.472 fold; Fold Enrichment relative to AAV9, DRG (NHP) [2, 5]: 0.331 fold; Fold Enrichment relative to AAV9, DRG (NHP) ([2]; NGS fold-enrichment, NHP DRG): 0.331 fold; Fold Enrichment relative to AAV9, Heart (NHP) ([2]; NGS fold-enrichment, NHP heart): 0.000 fold; Fold Enrichment relative to AAV9, Liver DNA (NHP) ([2]; NGS fold-enrichment, NHP liver DNA): 1.796 fold; Fold Enrichment relative to AAV9, Liver RNA (NHP) ([2]; NGS fold-enrichment, NHP liver RNA): 0.044 fold; Fold Enrichment relative to AAV9, Muscle (NHP) ([2]; NGS fold-enrichment, NHP muscle): 1.089 fold; Fold Enrichment relative to AAV9, Brain (NHP) [2, 6]: 111.472 fold; Fold Enrichment relative to AAV9, Heart (NHP) [2, 7]: 0.000 fold; Fold Enrichment relative to AAV9, Liver DNA (NHP) [2, 8]: 1.796 fold; Fold Enrichment relative to AAV9, Liver RNA (NHP) [2, 9]: 0.044 fold; Fold Enrichment relative to AAV9, Muscle (NHP) [2, 10]: 1.089 fold
